Source: publication PMC12458545, “Repurposing a Detrimental Antibody Epitope as Targeted Therapeutics for Sepsis and Rheumatoid Arthritis” (Research Square, 2025)
“Also recorded” adds a separate entry of the source.

How the values were obtained:
water solubility = format: physicochemical
[1] = system: sepsis-induced systemic cytokines and chemokines; assay: serum cytokines/chemokines in CLP sepsis, Cytokine Antibody Arrays; format: in vivo, Balb/C mice; details: P2–1 0.1 or 1.0 mg/kg i.p. at 2 h and 20 h post-CLP; blood at 24 h
Experimental: Experimental sepsis was induced in Balb/C mice via cecal ligation and puncture (CLP) as previously described,[30],[37]. […] Briefly, mice were anesthetized intramuscularly with ketamine (75 mg/kg, Henry Schein Animal Health, Dublin, Ohio) and xylazine (10 mg/kg, Sigma-Aldrich) before a midline abdominal incision was made in the lower left abdomen. The cecum was ligated with a 4–0 silk suture at 50% of its length from the distal end, and punctured twice with a 21-gauge needle to induce moderate to severe sepsis. The cecum was returned to the abdominal cavity, and the incision was closed in layers. Approximately 30 min post-CLP, animals received imipenem/cilastatin (0.5 mg/mouse, Primaxin, Merck & Co., Inc.) and 1.0 mL of sterile saline for fluid resuscitation. Animals were randomized to control vehicle and experimental groups, administered P2 or P2–1 intraperitoneally at indicated doses and time points, and monitored for survival rates. To elucidate P2–1’s protective mechanisms, a separate group of Balb/C mice underwent CLP and received P2–1 (1.0 mg/kg) at 2 h and 20 h post-CLP. At 24 h post-CLP, animals were euthanized to collect blood and measure serum cytokines and chemokines using murine Cytokine Antibody Arrays.
(§1) Levels of cytokines and chemokines in mouse serum and joint tissue lysates, or human PBMC culture supernatants were determined using murine or human Cytokine Antibody Arrays (e.g., Cat. No. M0308003 or Cat. No. AAH-CYT-3–4, RayBiotech Inc., Norcross, GA, USA) as previously described,[30],[86],[87]. Serum samples were collected from mice at 24 h post-CLP. The soft tissue of the hindpaw and ankle joints was carefully collected using a previously described protocol. Briefly, 0.5 g of fresh soft tissue was cut into 3 mm pieces, and mixed with 400 μL of a hypertonic solution (500 mL PBS with 4.5 g NaCl and 2× protease inhibitor cocktail) in a 10 mL syringe. Mechanical extrusion, involving 30 rapid back-and-forth movements of the plunger, was then performed. The expelled extracellular fluid was collected, immediately aliquoted, and stored at −20°C until analysis. Cell-conditioned medium was collected from PBMC cultures after 16 h of stimulation. Arrays were performed according to the manufacturer’s protocol, followed by chemiluminescent detection and densitometric quantification as previously described,[30].

[2] = system: CAIA-induced mechanical allodynia; assay: CAIA pain sensitivity, Von Frey filaments; format: in vivo, Balb/C mice; details: P2–1 i.p. daily Day 6 to Day 9; 50% paw withdrawal threshold, up-down method
Experimental: (§2) The CAIA model was performed in Balb/C mice (8–10 weeks old) as described previously. On Day 0, mice received i.p. injection of 2 mg anti-collagen II mAb cocktail (α-II, Chondrex, Inc., Redmond, WA). On Day 3, mice received i.p. injection of 30 μg LPS (Escherichia coli O111:B4; Sigma-Aldrich) to activate inflammation and synchronize arthritis onset. Mice were randomized, and therapeutic agents (P2–1 peptide or pCTS-L-neutralizing mAb2) were administered i.p. daily from Day 6 to Day 9. Arthritis severity was scored daily using a clinical scoring system [0 – 4 per paw: 0 = normal; 1 = mild redness and swelling in a single joint type (ankle, wrist, or individual digits); 2 = moderate redness and swelling affecting two joint types; 3 = severe redness and swelling involving across all three joint types; 4 = maximal redness and swelling of the entire paw that obscured joint definition].
Mechanical allodynia was assessed using Von Frey filaments (Stoelting Co., Wood Dale, IL) applied to the plantar surface of the hind paws as previously described,[82]. Mice were habituated in individual transparent enclosures on an elevated wire mesh platform. […] The “up-down” method determined the 50% paw withdrawal threshold, defined as the force required to elicit a withdrawal response in 50% of applications.

Recombinant human HMGB1 = target: T1, Recombinant human HMGB1 (Homo sapiens, UniProt P09429); assay: SPR (OpenSPR) binding to immobilized HMGB1; details: immobilized HMGB1, HBS-P buffer; Fig. 5A; Mean ± SEM, n = 2 independent experiments
T1 construct: made in house; host or cells: E. coli BL21 (DE3) pLysS
T1 sequence (P09429 1-215): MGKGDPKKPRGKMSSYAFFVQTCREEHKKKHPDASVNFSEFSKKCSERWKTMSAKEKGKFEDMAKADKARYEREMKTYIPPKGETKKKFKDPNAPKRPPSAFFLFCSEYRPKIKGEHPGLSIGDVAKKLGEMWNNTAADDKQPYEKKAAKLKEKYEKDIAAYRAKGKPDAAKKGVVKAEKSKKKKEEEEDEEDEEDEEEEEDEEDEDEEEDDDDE
Experimental: Binding kinetics between HMGB1 and P2–1 were measured using Nicoya Life Science gold nanoparticle-based OpenSPR technology (Kitchener, ON, Canada) as previously described,[84]. Recombinant human HMGB1 was immobilized onto a Carboxyl sensor chip, and P2–1 peptide was flowed over immobilized HMGB1 at various concentrations in HBS-P buffer (GE Healthcare). Response units were recorded over time, and binding affinity was estimated as the equilibrium dissociation constant KD using Trace Drawer Kinetic Data Analysis v.1.6.1 (Nicoya Life Science).

[3] = system: CAIA-induced joint tissue cytokines and chemokines; assay: CAIA joint tissue inflammation, Cytokine Antibody Arrays; format: in vivo, Balb/C mice; details: P2–1, harvested Day 10; for joint tissue inflammation (array overall): representative arrays, four vehicle- and four P2-1-treated mice
Experimental: as §2, §1

With “54-TKVH(Nle)KSFLAFQTKT-69 [P2–1, water-soluble derivative of TN peptide P2 with Met to Norleucine and Cys to Ser substitutions]” the water solubility (water solubility) was “good water solubility”, the sepsis-induced systemic inflammation [1] was “significantly attenuated” and the “serum BLC/CXCL13” value [1] was “significantly reduced”. For the same substance, the “serum G-CSF” value [1] was “significantly reduced”, the “serum IL-6” value [1] was “significantly reduced” and the “serum KC/GRO-α/CXCL1” value [1] was “significantly reduced”. For the same substance, the “serum MCP-1/CCL2” value [1] was “significantly reduced”, the “serum MIP-1γ/CCL9/10” value [1] was “significantly reduced” and the “serum MIP-2/GRO-β/CXCL3” value [1] was “significantly reduced”. For the same substance, the “serum sTNFRI” value [1] was “significantly reduced”, the “pain sensitivity (paw mechanical withdrawal threshold)” value [2] was “significantly reduced CAIA-induced pain sensitivity by partially restoring paw mechanical withdrawal thresholds” and the Kd (Recombinant human HMGB1) was 24.1 ± 9.35 nM. The “joint tissue MIP-1γ/CCL9/10” value [3] was “reduced levels; also recorded: significant reduction”, the “joint tissue VCAM-1” value [3] was “reduced levels; also recorded: significant reduction” and the “joint tissue sTNFRI” value [3] was “reduced levels; also recorded: significant reduction”. The “joint tissue sTNFRII” value [3] was “reduced levels; also recorded: significant reduction”, the “joint tissue inflammation (array overall)” value [3] was “significantly reduced CAIA-induced joint tissue inflammation” and the “joint tissue inflammation (array overall)” value ([3]; listed as P2-1) was “reduction in various inflammatory cytokines and chemokines”.
